Patent US7041851B2, “Fluorinated phenyl thiophenyl derivatives and their use for imaging serotonin transporters” (The Trustees of the University of Pennsylvania, priority 2002, dated 2006)

Legend:
SERT = target: T1, SERT (Rattus norvegicus, UniProt P31652); test: Pretreatment with monoamine reuptake inhibitors, specific binding of [18F]ACF in rat brain regions; type: in vivo, rats; set-up: Tracer uptake: Cortex / Tracer uptake: Remainder / Tracer uptake: Hypothalamus / Tracer uptake: Whole brain / Tracer uptake: Blood / Tracer uptake: Cerebellum / Tracer uptake: Striatum / Tracer uptake: Hippocampus: unit not given here; conditions: for Ratio to Cerebellum: Cerebellum / Ratio to Cerebellum: Cortex / Ratio to Cerebellum: Hippocampus / Ratio to Cerebellum: Hypothalamus / Ratio to Cerebellum: Remainder / Ratio to Cerebellum: Striatum / Tracer uptake: Blood / Tracer uptake: Cerebellum / Tracer uptake: Cortex / Tracer uptake: Hippocampus / Tracer uptake: Hypothalamus / Tracer uptake: Remainder / Tracer uptake: Striatum / Tracer uptake: Whole brain: 1 h after tracer
T1 construct: from tissue; host or cells: rat brain in vivo (hypothalamus, striatum, hippocampus, cerebellum)

[1] = Organ distribution and brain regional uptake of [18F]ACF in rats
[2] = rats, Control (saline-pretreated)
[3] = rats, pretreated (+)McN5652 2 mg/kg iv 5 min prior
[4] = rats, pretreated Methylphenidate 2 mg/kg iv 5 min prior
[5] = rats, pretreated Nisoxetine 2 mg/kg iv 5 min prior

T1 sequence (P31652 whole entry): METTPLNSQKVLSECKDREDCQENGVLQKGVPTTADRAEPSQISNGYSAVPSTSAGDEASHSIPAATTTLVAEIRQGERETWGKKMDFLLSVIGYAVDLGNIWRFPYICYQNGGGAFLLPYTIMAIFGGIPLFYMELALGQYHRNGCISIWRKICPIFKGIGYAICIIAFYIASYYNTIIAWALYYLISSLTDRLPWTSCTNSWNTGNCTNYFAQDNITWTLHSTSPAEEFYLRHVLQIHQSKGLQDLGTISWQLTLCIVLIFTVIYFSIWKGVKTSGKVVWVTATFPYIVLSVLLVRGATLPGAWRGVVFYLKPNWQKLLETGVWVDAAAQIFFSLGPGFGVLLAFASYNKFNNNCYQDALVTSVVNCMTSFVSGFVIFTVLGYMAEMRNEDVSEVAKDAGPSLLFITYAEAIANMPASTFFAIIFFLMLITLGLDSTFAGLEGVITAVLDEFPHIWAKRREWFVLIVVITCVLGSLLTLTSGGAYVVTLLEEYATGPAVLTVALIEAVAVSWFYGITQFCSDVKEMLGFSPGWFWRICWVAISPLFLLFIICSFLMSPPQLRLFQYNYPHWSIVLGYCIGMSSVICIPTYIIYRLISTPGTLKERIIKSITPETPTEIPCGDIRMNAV

CN(C)Cc1ccccc1Sc1cc([18F])c(Cl)cc1N [[^18F]ACF]
Specific retention in brain regions after pretreatment (SERT; rats pretreated with methylphenidate): No significant differences
Specific retention in brain regions after pretreatment (SERT; rats pretreated with nisoxetine): No significant differences
Specific retention in hypothalamus, striatum and hippocampus after pretreatment (SERT; rats, 60 min, (+)McN5652 2 mg/Kg 5 min prior to tracer injection): significant decrease
Ratio to Cerebellum: Cerebellum (SERT; [2]): 1.00 ± 0.00
Ratio to Cerebellum: Cortex (SERT; [2]): 1.86 ± 0.05
Ratio to Cerebellum: Hippocampus (SERT; [2]): 2.52 ± 0.13
Ratio to Cerebellum: Hypothalamus (SERT; [2]): 2.96 ± 0.03
Ratio to Cerebellum: Remainder (SERT; [2]): 2.26 ± 0.03
Ratio to Cerebellum: Striatum (SERT; [2]): 2.63 ± 0.23
Tracer uptake: Blood (SERT; [2]): 0.26 ± 0.03
Tracer uptake: Cerebellum (SERT; [2]): 0.21 ± 0.02
Tracer uptake: Cortex (SERT; [2]): 0.39 ± 0.03
Tracer uptake: Hippocampus (SERT; [2]): 0.53 ± 0.03
Tracer uptake: Hypothalamus (SERT; [2]): 0.63 ± 0.05
Tracer uptake: Remainder (SERT; [2]): 0.48 ± 0.04
Tracer uptake: Striatum (SERT; [2]): 0.56 ± 0.09
Tracer uptake: Whole brain (SERT; [2]): 0.81 ± 0.09
Ratio to Cerebellum: Cerebellum (SERT; [3]): 1.00 ± 0.00
Ratio to Cerebellum: Cortex (SERT; [3]): 1.43 ± 0.27
Ratio to Cerebellum: Hippocampus (SERT; [3]): 1.93 ± 0.21
Ratio to Cerebellum: Hypothalamus (SERT; [3]): 1.36 ± 0.15
Ratio to Cerebellum: Remainder (SERT; [3]): 1.37 ± 0.16
Ratio to Cerebellum: Striatum (SERT; [3]): 1.48 ± 0.32
Tracer uptake: Blood (SERT; [3]): 0.26 ± 0.03
Tracer uptake: Cerebellum (SERT; [3]): 0.17 ± 0.03
Tracer uptake: Cortex (SERT; [3]): 0.24 ± 0.02
Tracer uptake: Hippocampus (SERT; [3]): 0.34 ± 0.06
Tracer uptake: Hypothalamus (SERT; [3]): 0.24 ± 0.03
Tracer uptake: Remainder (SERT; [3]): 0.23 ± 0.01
Tracer uptake: Striatum (SERT; [3]): 0.25 ± 0.03
Tracer uptake: Whole brain (SERT; [3]): 0.42 ± 0.02
Ratio to Cerebellum: Cerebellum (SERT; [4]): 1.00 ± 0.00
Ratio to Cerebellum: Cortex (SERT; [4]): 2.02 ± 0.21
Ratio to Cerebellum: Hippocampus (SERT; [4]): 2.50 ± 0.15
Ratio to Cerebellum: Hypothalamus (SERT; [4]): 3.05 ± 0.14
Ratio to Cerebellum: Remainder (SERT; [4]): 2.23 ± 0.05
Ratio to Cerebellum: Striatum (SERT; [4]): 2.75 ± 0.09
Tracer uptake: Blood (SERT; [4]): 0.28 ± 0.02
Tracer uptake: Cerebellum (SERT; [4]): 0.17 ± 0.02
Tracer uptake: Cortex (SERT; [4]): 0.35 ± 0.03
Tracer uptake: Hippocampus (SERT; [4]): 0.43 ± 0.03
Tracer uptake: Hypothalamus (SERT; [4]): 0.52 ± 0.07
Tracer uptake: Remainder (SERT; [4]): 0.38 ± 0.05
Tracer uptake: Striatum (SERT; [4]): 0.47 ± 0.06
Tracer uptake: Whole brain (SERT; [4]): 0.67 ± 0.04
Ratio to Cerebellum: Cerebellum (SERT; [5]): 1.00 ± 0.00
Ratio to Cerebellum: Cortex (SERT; [5]): 1.94 ± 0.16
Ratio to Cerebellum: Hippocampus (SERT; [5]): 2.44 ± 0.11
Ratio to Cerebellum: Hypothalamus (SERT; [5]): 2.89 ± 0.11
Ratio to Cerebellum: Remainder (SERT; [5]): 2.17 ± 0.04
Ratio to Cerebellum: Striatum (SERT; [5]): 2.50 ± 0.12
Tracer uptake: Blood (SERT; [5]): 0.26 ± 0.01
Tracer uptake: Cerebellum (SERT; [5]): 0.19 ± 0.01
Tracer uptake: Cortex (SERT; [5]): 0.37 ± 0.04
Tracer uptake: Hippocampus (SERT; [5]): 0.46 ± 0.02
Tracer uptake: Hypothalamus (SERT; [5]): 0.55 ± 0.02
Tracer uptake: Remainder (SERT; [5]): 0.41 ± 0.01
Tracer uptake: Striatum (SERT; [5]): 0.47 ± 0.03
Tracer uptake: Whole brain (SERT; [5]): 0.74 ± 0.04
Organ distribution: Blood ([1]; 2 min after iv injection): 6.56 ± 0.64 % dose/organ
Organ distribution: Bone ([1]; 2 min after iv injection): 0.01 ± 0.00 % dose/organ
Organ distribution: Brain ([1]; 2 min after iv injection): 3.27±0.79 % dose/organ
Organ distribution: Heart ([1]; 2 min after iv injection): 1.69 ± 0.24 % dose/organ
Organ distribution: Kidney ([1]; 2 min after iv injection): 6.97 ± 0.73 % dose/organ
Organ distribution: Liver ([1]; 2 min after iv injection): 9.41 ± 1.82 % dose/organ
Organ distribution: Lung ([1]; 2 min after iv injection): 14.89 ± 2.28 % dose/organ
Organ distribution: Muscle ([1]; 2 min after iv injection): 14.34 ± 9.76 % dose/organ
Organ distribution: Skin ([1]; 2 min after iv injection): 4.76 ± 0.89 % dose/organ
Organ distribution: Spleen ([1]; 2 min after iv injection): 0.64 ± 0.20 % dose/organ
Ratio to Cerebellum: Cerebellum ([1]; 2 min after iv injection): 1.00 ± 0.00
Ratio to Cerebellum: Cortex ([1]; 2 min after iv injection): 1.84 ± 0.43
Ratio to Cerebellum: Hippocampus ([1]; 2 min after iv injection): 1.24 ± 0.15
Ratio to Cerebellum: Hypothalamus ([1]; 2 min after iv injection): 1.37 ± 0.19
Ratio to Cerebellum: Remainder ([1]; 2 min after iv injection): 1.32 ± 0.21
Ratio to Cerebellum: Striatum ([1]; 2 min after iv injection): 1.41 ± 0.31
Regional brain distribution: Cerebellum ([1]; 2 min after iv injection): 1.33 ± 0.51 % dose/g
Regional brain distribution: Cortex ([1]; 2 min after iv injection): 2.31 ± 0.46 % dose/g
Regional brain distribution: Hippocampus ([1]; 2 min after iv injection): 1.60 ± 0.46 % dose/g
Regional brain distribution: Hypothalamus ([1]; 2 min after iv injection): 1.76 ± 0.48 % dose/g
Regional brain distribution: Remainder ([1]; 2 min after iv injection): 1.69 ± 0.43 % dose/g
Regional brain distribution: Striatum ([1]; 2 min after iv injection): 1.78 ± 0.36 % dose/g
Organ distribution: Blood ([1]; 30 min after iv injection): 4.52 ± 0.22 % dose/organ
Organ distribution: Bone ([1]; 30 min after iv injection): 0.04 ± 0.03 % dose/organ
Organ distribution: Brain ([1]; 30 min after iv injection): 1.28 ± 0.14 % dose/organ
Organ distribution: Heart ([1]; 30 min after iv injection): 0.18 ± 0.02 % dose/organ
Organ distribution: Kidney ([1]; 30 min after iv injection): 2.64 ± 0.79 % dose/organ
Organ distribution: Liver ([1]; 30 min after iv injection): 15.20 ± 1.20 % dose/organ
